≈ marks a conversion by molar mass, not a printed value. Where two headings read alike, the source gives them in different places.
How the values were obtained:
S. mutans biofilm = assay: Biofilm susceptibility assay (crystal violet); format: cell-based, Streptococcus mutans UA159; details: 24 h; for MBIC: S. mutans biofilm formation, at least 90% inhibition; for MBRC: S. mutans one-day biofilm, at least 90% reduction
Protocol: (§1) Streptococcus mutans UA159, Streptococcus gordonii DL1 and Streptococcus sanguinis ATCC10556 were obtained from the State Key Laboratory of Oral Diseases (Sichuan University, Chengdu, China). All strains were routinely cultured in brain heart infusion broth (BHI; Difco, Sparks, MD) under anaerobic conditions (5% CO2) at 37°C. For biofilm formation, bacteria were cultured in BHI broth supplied with 1% sucrose (designated BHIS). The effect of II-6s on S. mutans, S. gordonii, and S. sanguinis biofilm was examined by the microdilution method described previously. S. mutans, S. gordonii, and S. sanguinis (1 × 10^7 CFU/ml) respectively, were cultured in BHIS broth and II-6s (0.98 to 500 μg/ml) in 96-well microtiter plates for 24 h. A parallel study was also performed with BHIS as a negative control. After incubation, the culture supernatant and agent were removed, and each well was gently washed three times with phosphate-buffered saline (PBS), then fixed the adherent biofilm was fixed with methanol for 15 min, and stained with 0.1% (wt/vol) crystal violet (Sigma) for 5 min. The excess crystal violet stain in each well was rinsed away with PBS until the blank control wells were colorless. Finally, 200 μl of 95% ethanol was added to each well to dissolve the crystal violet attached to the biofilm. The plate was shaken at room temperature for 30 min, and the absorbance at 595 nm was recorded. To examine the effects of II-6s on mature biofilm, bacterial suspensions were inoculated into a 96-well microtiter plate containing BHIS and incubated at 37°C for 24 h. After biofilm developed, the supernatant from each well was decanted and planktonic cells were removed by washing with sterile PBS. Fresh BHI broth containing II-6s (0.98 to 500 μg/ml) was added to the one-day biofilm, and the plate was further incubated for 24 h. The control wells contained BHIS broth without II-6s. Similarly, the biofilm was fixed, stained, washed, and quantified as described above. […] The experiment was performed in triplicates and repeated at least three times.

S. mutans = assay: Bacterial susceptibility assay (microdilution, planktonic); format: cell-based, Streptococcus mutans UA159; details: Streptococcus mutans
Protocol: Streptococcus mutans UA159, Streptococcus gordonii DL1 and Streptococcus sanguinis ATCC10556 were obtained from the State Key Laboratory of Oral Diseases (Sichuan University, Chengdu, China). All strains were routinely cultured in brain heart infusion broth (BHI; Difco, Sparks, MD) under anaerobic conditions (5% CO2) at 37°C. For biofilm formation, bacteria were cultured in BHI broth supplied with 1% sucrose (designated BHIS).
The minimum inhibitory concentration (MIC) and minimum bactericidal concentration (MBC) of II-6s against S. mutans, S. gordonii, and S. sanguinis were measured by a microdilution method in BHI as described previously. The bacterial inoculum for the experiment was adjusted to 1 × 10^7 colony-forming units (CFU)/ml for S. mutans, S. gordonii, and S. sanguinis based on the optical density at 600 nm (OD600) versus a CFU/ml graph of each bacterium. Bacterial suspension was added to 96-well microtiter plates which were supplemented with serially diluted concentrations of II-6s ranging from 0.98 to 500 μg/ml. Each plate also included CHX ranging from 0.98 to 500 μg/ml as a positive control, test bacteria and BHI broth as a negative control, BHI broth containing equivalent DMSO (0.5% to 0.001%, ν/ν) as a solvent control and a blank control. […] The lowest concentration of the test solutions that allowed no visible growth on a BHI agar plate was taken as MBC. The experiment was performed in triplicates and repeated at least three times.

[1] = system: 3-species streptococcal biofilms on bovine enamel slabs; assay: Transverse microradiography of biofilm-induced demineralization on bovine enamel slabs; format: cell-based; details: for biofilm-induced demineralization of enamel slabs (lesion depth, mineral loss): vs PBS control, 5 days, 5 min three times per day
From the text: The labial dental crown of bovine incisors was cut into 5 mm × 5 mm × 4 mm by a diamond-coated band saw with continuous water cooling (Struers Minitom; Struers, Copenhagen, Denmark). These bovine specimens were embedded in polymethylmethacrylate and labial enamel surfaces were ground flat with water-cooled carborundum discs of waterproof silicon carbide paper (Struers) of various grits (1,000, 1,200, 2,400, 3,000 and 4,000). Then, enamel blocks were painted with two layers of acid-resistant nail varnish, leaving a 4 × 4 mm window exposed on the labial enamel surface. These specimens were measured by the […] hardness test (Zwick, Ulm, Germany) and those in the range from 314.6 to 382.4 Knoop Hardness Numbers were selected for the demineralization assessment. All the polished samples were sonicated in distilled water for 5 min to remove the residual abrasives and sterilized in an ethylene oxide sterilizer (AnproleneAN 74i, Andersen, Haw River, NC, USA).
An amount of 2 ml bacterial suspension solution contained S. mutans, S. gordonii and S. sanguinis (1 × 10^7 CFU/ml for each bacterium) was added to each well of a 12-well plate with a bovine sample, which was cultured anaerobically in a BHIS medium at 37°C (5% CO2) for 24 h. The specimens were treated with PBS, 0.2% of CHX or different concentrations of II-6s (15.63 to 125 μg/ml) for 5 days (5 min, three times per day). The pH of all experimental solutions was adjusted to 7.0 before treatment. All specimens were washed with PBS and refreshed with BHIS after every exposure. After 5 days of incubation, samples were rinsed with distilled water to remove the remaining biofilms, then cut again and polished with waterproof silicon carbide abrasive papers (800–4,000 grit; Struers, Copenhagen, Denmark) to a thickness around 100 μm. […] Quantitative data of mineral loss and lesion depth were acquired by a calibrated analysis system TMR2006 (Inspektor Research Systems BV, Netherlands). […]

S. sanguinis biofilm = assay: Biofilm susceptibility assay (crystal violet); format: cell-based, Streptococcus sanguinis ATCC10556; details: 24 h; for MBIC: S. sanguinis biofilm formation, at least 90% inhibition; for MBRC: S. sanguinis one-day biofilm, at least 90% reduction
Protocol: as §1

S. gordonii biofilm = assay: Biofilm susceptibility assay (crystal violet); format: cell-based, Streptococcus gordonii DL1; details: 24 h; for MBIC: S. gordonii biofilm formation, at least 90% inhibition; for MBRC: S. gordonii one-day biofilm, at least 90% reduction
Protocol: as §1

[2] = S. mutans, planktonic, BHI medium

For `[H]/N=C(\N/C(=N/[H])NCCCCCCNC(=N)NC(=N)Nc1ccc(Cl)cc1)Nc1ccc(Cl)cc1` [CHX, Chlorhexidine digluconate, reference compound], the MBIC (S. mutans biofilm) was 0.98 µg/mL, the MBRC (S. mutans biofilm) was 62.50 µg/mL and the MBC (S. mutans; [2]) was 7.81 µg/mL. The MIC (S. mutans; S. mutans, planktonic, BHI medium, read-out: MIC) was 1.95 µg/mL, the “biofilm-induced demineralization of enamel slabs (lesion depth, mineral loss)” value [1] was “significantly reduced the demineralization” and the MBIC (S. sanguinis biofilm) was 1.95 µg/mL. The MBRC (S. sanguinis biofilm) was 3.91 µg/mL, the MBIC (S. gordonii biofilm) was 3.91 µg/mL and the MBRC (S. gordonii biofilm) was 15.63 µg/mL.
`CC(C)(Cc1ccc2ccccc2c1)NC[C@H](O)CNc1cc(C(F)(F)F)cc(C(F)(F)F)c1` [II-6s, (S)-1-((3,5-bis(trifluoromethyl)phenyl)amino)-3-((2-methyl-1-(naphthalen-2-yl)propan-2-yl)amino)propan-2-ol] showed an MBIC (S. mutans biofilm) of 3.91 µg/mL, an MBRC (S. mutans biofilm) of 62.50 µg/mL and an MIC (S. mutans) of 3.91 µg/mL (≈ 8.07 µM). For the same molecule, the MBC (S. mutans; [2]) was 15.6 µg/mL (≈ 32.3 µM), the “inhibitory effect on biofilm-induced demineralization” value ([1]; II-6s 31.25 to 125 μg/ml, vs 0.2% of CHX) was “equivalent inhibitory effect on the biofilm-induced demineralization as compared to 0.2% of CHX” and the “biofilm-induced demineralization of enamel slabs (lesion depth, mineral loss)” value [1] was “significantly reduced the demineralization”. The MBIC (S. sanguinis biofilm) was 3.91 µg/mL, the MBRC (S. sanguinis biofilm) was 3.91 µg/mL and the MBIC (S. gordonii biofilm) was 3.91 µg/mL. It also gave an MBRC (S. gordonii biofilm) of 3.91 µg/mL.
